Test results published in patent US20120129842A1, “BISTHIAZOLE INHIBITORS OF PRO-MATRIX METALLOPROTEINASE ACTIVATION” (priority 2010, published 2012).
Structures can show the parent of a compound that is named as a salt.

Legend:
[1] = target: T1, proMMP9(20-445;ΔFnII) (SEQ ID NO:6) (Homo sapiens, UniProt P14780, DEL216-390); assay: ThermoFluor binding assay with proMMP9(20-445;ΔFnII); conditions: pH 7.0
T1 construct: start methionine (N); made in house; host or cells: E. coli BL21(DE3) RIL
T1 sequence (P14780 with tags, fused parts or gaps DEL216-390): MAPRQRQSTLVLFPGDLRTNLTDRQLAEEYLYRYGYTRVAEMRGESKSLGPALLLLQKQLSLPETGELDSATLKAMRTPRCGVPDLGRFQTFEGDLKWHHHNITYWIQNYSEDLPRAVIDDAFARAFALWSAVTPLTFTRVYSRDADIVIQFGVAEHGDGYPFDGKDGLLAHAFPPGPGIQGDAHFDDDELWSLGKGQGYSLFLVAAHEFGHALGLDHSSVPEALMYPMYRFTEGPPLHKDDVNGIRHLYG
In short: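 proMMP9(20-445;ΔFnII) at 2.8 μM with 50 μM 1,8-ANS in 50 mM HEPES pH 7.0, 100 mM NaCl, 0.001% Tween-20, 2.5 mM MgCl2, 300 μM CaCl2; compounds serially diluted in DMSO. Heated 40–90 °C at 1 °C/min, fluorescence read at 500±25 nm. Tm fit by standard equations; binding fit using DSC/TF-derived thermodynamic parameters.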

[2] = target: T2, proMMP9(67-444;ΔFnII) (SEQ ID NO:5) (Homo sapiens, UniProt P14780, DEL216-390); assay: ThermoFluor binding assay with proMMP9(67-444;ΔFnII); conditions: pH 7.0
T2 construct: start methionine (N); made in house; host or cells: E. coli BL21(DE3) RIL
T2 sequence (P14780 with tags, fused parts or gaps DEL216-390): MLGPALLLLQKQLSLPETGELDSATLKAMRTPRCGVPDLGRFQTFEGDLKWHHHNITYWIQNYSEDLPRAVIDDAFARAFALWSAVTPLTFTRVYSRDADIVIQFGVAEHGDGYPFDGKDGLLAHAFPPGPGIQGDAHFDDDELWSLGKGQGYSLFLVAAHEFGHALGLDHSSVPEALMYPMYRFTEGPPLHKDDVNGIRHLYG
In short: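 Thermal shift binding with 3.5 μM proMMP9(67-444;ΔFnII) and 50 μM 1,8-ANS in 50 mM HEPES pH 7.0, 100 mM NaCl, 2.5 mM MgCl2, 300 μM CaCl2, 0.001% Tween-20, with serially diluted compound. Heated 40 to 90° C at 1° C/min; fluorescence-derived Tm fitted using DSC/ThermoFluor thermodynamic parameters.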

[3] = target: T3, full-length proMMP9(1-707) (SEQ ID NO:1) (Homo sapiens, UniProt P14780, R574P); assay: ProMMP9/MMP3 DQ Gelatin Activation Assay; type: biochemical; conditions: 20 nM proMMP9, 10 nM MMP3, DQ gelatin; read-out: ProMMP9/MMP3 DQ gel Activation Assay, IC50
T3 construct: made in house; host or cells: HEK293 (proMMP9, secreted); E. coli (MMP3)
T3 sequence (P14780 20-707 R574P): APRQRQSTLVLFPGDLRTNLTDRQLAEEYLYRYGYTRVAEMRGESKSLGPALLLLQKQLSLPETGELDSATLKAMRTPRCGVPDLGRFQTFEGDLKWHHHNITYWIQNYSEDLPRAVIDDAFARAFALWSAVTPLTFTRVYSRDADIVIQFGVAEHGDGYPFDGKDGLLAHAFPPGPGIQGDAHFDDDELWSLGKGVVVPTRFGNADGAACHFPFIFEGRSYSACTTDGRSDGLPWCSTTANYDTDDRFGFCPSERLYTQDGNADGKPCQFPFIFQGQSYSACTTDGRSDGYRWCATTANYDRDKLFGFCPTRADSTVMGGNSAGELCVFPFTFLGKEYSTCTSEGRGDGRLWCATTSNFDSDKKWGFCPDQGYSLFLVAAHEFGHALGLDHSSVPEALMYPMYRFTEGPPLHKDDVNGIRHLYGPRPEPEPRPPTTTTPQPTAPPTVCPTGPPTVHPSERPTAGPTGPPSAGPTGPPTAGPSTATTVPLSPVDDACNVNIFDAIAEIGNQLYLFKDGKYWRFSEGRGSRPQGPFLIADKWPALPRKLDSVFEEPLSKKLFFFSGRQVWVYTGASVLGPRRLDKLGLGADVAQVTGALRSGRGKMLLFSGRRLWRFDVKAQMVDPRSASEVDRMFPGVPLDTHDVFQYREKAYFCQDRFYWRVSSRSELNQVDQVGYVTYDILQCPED
Procedure: Compounds were assessed for inhibition of proMMP9 activation by catalytic MMP3 using a quenched fluorescein gelatin substrate (DQ gelatin, Invitrogen D12054) that fluoresces upon cleavage by activated MMP9. The assay buffer employed was 50 mM Hepes, pH 7.5, 10 mM CaCl2, 0.05% Brij-35. DMSO was included at a final concentration of 0.2%, arising from the test compound addition. […] Test compounds in DMSO were diluted 250-fold in assay buffer at 4× the final concentration. The reaction volume was 12 μL, and all reactions were conducted in triplicate. […] The plate was sealed and incubated for 30 min at 37° C. […] Immediately following the 30 min incubation, 4 μL of 40 μg/ml DQ gelatin substrate was added (freshly diluted in assay buffer), and incubated for 10 min at room temperature. The reaction was stopped by the addition of 4 μL of 50 mM EDTA, and the resulting activity associated with catalytic MMP9 was determined at 485 nm excitation, 535 nm emission using an Envision fluorescent reader (Perkin Elmer). Reactivity of residual MMP3 towards DQ gelatin was minimal under these conditions. Percent inhibition of test compounds were determined from suitable positive (DMSO only in assay buffer) and negative (EDTA added prior to reaction initiation) controls. Plots of % inhibition vs. test compound concentration were fit to a four-parameter logistics equation (GraphPad Prism® software) for determination of IC50.

[4] = target: T4, proMMP13(1-268) (SEQ ID NO:7) (Homo sapiens, UniProt P45452); assay: ThermoFluor binding assay with proMMP13(1-268); design: 6xHis (C); made in house; conditions: pH 7.0
In short: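 Thermal shift binding with 3.5 μM protein and 25 μM 1,8-ANS in 50 mM HEPES pH 7.0, 100 mM NaCl, 0.001% Tween-20, 2.5 mM MgCl2, 300 μM CaCl2. Samples were heated 40 to 90 °C at 1 °C/min, fluorescence read at 500 nm. Tm shifts across an 11-point DMSO dilution series were fitted with DSC-derived thermodynamic parameters.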

[5] = target: T3, full-length proMMP9(1-707) (SEQ ID NO:1); assay: proMMP9/MMP3 P126 Activation Assay; type: biochemical; conditions: 20 nM proMMP9, 20 nM MMP3, 80 min 37° C.
Procedure: The reaction volume was 50 μL. […] Reactivity of residual MMP3 towards P-126 substrate was minimal under these conditions.

[6] = target: T4, proMMP13(1-268) (SEQ ID NO:7); assay: ProMMP13/Plasmin P126 Activation Assay; type: biochemical; design: 6xHis (C); made in house; host or cells: HEK293 (transient, secreted); conditions: 8 nM proMMP13, 16 nM plasmin, 40 min 37° C.
Procedure: On the day of assay, proMMP13(1-268) (SEQ ID NO:7) purified from HEK293 cells and plasmin were diluted to 160 nM and 320 nM, respectively, in assay buffer. The reaction volume was 50 μL. […] The plate was sealed and incubated for 40 min at 37° C. […] Plasmin was not reactive towards P-126 substrate under these conditions.

Kd [1] [nM]	Kd [2] [nM]	IC50 [3] [µM]	Kd [4] [µM]	IC50 [5] [nM]	IC50 [6] [nM]	Structure (SMILES)
5000	4400	27	40			CC(=O)Nc1nc(C)c(-c2csc(Nc3cccc4ccccc34)n2)s1 [Example 149, N-[4′-Methyl-2-(naphthalen-1-ylamino)-[4,5′]bithiazolyl-2′-yl]-acetamide.HCl]
> 8000	> 8000	6				CC(=O)Nc1nc(C)c(-c2csc(Nc3cccnc3O)n2)s1 [Example 148, N-[2-(2-Hydroxy-pyridin-3-ylamino)-4′-methyl-[4,5′]bithiazolyl-2′-yl]-acetamide.HBr]
9800	1100	9	30			COc1ccc(C)cc1Nc1nc(-c2sc(NC(C)=O)nc2C)cs1 [Example 11, N-[2-(2-Methoxy-5-methyl-phenylamino)-4′-methyl-[4,5′]bithiazolyl-2′-yl]-acetamide]
12000	7600	20				COc1ncccc1Nc1nc(-c2sc(NC(C)=O)nc2C)cs1 [Example 147, N-[2-(2-Methoxy-pyridin-3-ylamino)-4′-methyl-[4,5′]bithiazolyl-2′-yl]-acetamide.TFA]
4600	1300	5.9				CC(=O)Nc1nc(C)c(-c2csc(Nc3cccc4cccnc34)n2)s1 [Example 146, N-[4′-Methyl-2-(quinolin-8-ylamino)-[4,5′]bithiazolyl-2′-yl]-acetamide.TFA]
				33	860	Cc1nc(C2CCN(C)CC2)sc1-c1csc(Nc2cc(C(N)=O)ccc2OC(C)C)n1 [Example 157, 4-Isopropoxy-3-((4′-methyl-2′-(1-methylpiperidin-4-yl)-[4,5′-bithiazol]-2-yl)amino)benzamide.TFA]
61000	> 95000		> 95	3800		Cc1cc2cccc(Nc3nc(-c4sc(C)nc4C)cs3)c2o1 [Example 29, (2′,4′-Dimethyl-[4,5′]bithiazolyl-2-yl)-(2-methyl-benzofuran-7-yl)-amine]
2000	2700		20	7500		COc1ccc(C(=O)NCc2ccccc2)cc1Nc1nc(-c2sc(NC(C)=O)nc2C)cs1 [Example 59, 3-(2′-Acetylamino-4′-methyl-[4,5′]bithiazolyl-2-ylamino)-N-benzyl-4-methoxy-benzamide.TFA]
200	520		0.54	150		Cc1nc(C(=O)N(C)CCN(C)C)sc1-c1csc(Nc2cc(C(N)=O)ccc2OC(C)C)n1 [Example 107, 2-(5-Carbamoyl-2-isopropoxy-phenylamino)-4′-methyl-[4,5′]bithiazolyl-2′-carboxylic acid (2-dimethylamino-ethyl)-methyl-amide.TFA]
770	3300		5.6	730		Cc1nc(CN2CCN(C)CC2)sc1-c1csc(Nc2cc(C(N)=O)ccc2OC(C)C)n1 [Example 131, 4-Isopropoxy-3-[4′-methyl-2′-(4-methyl-piperazin-1-ylmethyl)-[4,5′]bithiazolyl-2-ylamino]-benzamide.TFA]
680	2000		6.9	670		CCOc1ccc(C(N)=O)cc1Nc1nc(-c2sc(C(=O)N3CCN(CC)CC3)nc2C)cs1 [Example 117, 4-Ethoxy-3-[2′-(4-ethyl-piperazine-1-carbonyl)-4′-methyl-[4,5]bithiazolyl-2-ylamino]-benzamide.TFA]
37	170		0.68	100		Cc1nc(N2CCN(C)CC2)sc1-c1csc(Nc2cc(C(N)=O)ccc2OC(C)C)n1 [Example 90, 4-Isopropoxy-3-[4′-methyl-2′-(4-methyl-piperazin-1-yl)-[4,5′]bithiazolyl-2-ylamino]-benzamide.TFA]
830	670		4.9	250		CCOc1ccc(C(N)=O)cc1Nc1nc(-c2sc(C(=O)NC3CCN(C(C)C)CC3)nc2C)cs1 [Example 122, 2-(5-Carbamoyl-2-ethoxy-phenylamino)-4′-methyl-[4,5′]bithiazolyl-2′-carboxylic acid (1-isopropyl-piperidin-4-yl)-amide.TFA]
2800	3800		6.4	880		CCOc1ccc(C(N)=O)cc1Nc1nc(-c2sc(C(=O)N3CCN(C)CC3)nc2C)cs1 [Example 115, 4-Ethoxy-3-[4′-methyl-2′-(4-methyl-piperazine-1-carbonyl)-[4,5′]bithiazolyl-2-ylamino]-benzamide.TFA]
250	410		1.1	460		CCOc1ccc(S(N)(=O)=O)cc1Nc1nc(-c2sc(C)nc2C)cs1 [Example 70, 3-(2′,4′-Dimethyl-[4,5′]bithiazolyl-2-ylamino)-4-ethoxy-benzenesulfonamide.HCl]
220	2800		4.1	410		Cc1nc(Nc2cccnc2)sc1-c1csc(Nc2cc(C(N)=O)ccc2OC(C)C)n1 [Example 95, 4-Isopropoxy-3-[4′-methyl-2′-(pyridin-3-ylamino)-[4,5′]bithiazolyl-2-ylamino]-benzamide.TFA]
500	2700		5.2	1300		Cc1nc(CN2CCCCC2)sc1-c1csc(Nc2cc(C(N)=O)ccc2OC(C)C)n1 [Example 128, 4-Isopropoxy-3-(4′-methyl-2′-piperidin-1-ylmethyl-[4,5′]bithiazolyl-2-ylamino)-benzamide.TFA]
590	580		0.84	760		CC(=O)Nc1nc(C)c(-c2csc(Nc3cc(S(C)(=O)=O)ccc3OC(C)C)n2)s1 [Example 43, N-[2-(2-Isopropoxy-5-methanesulfonyl-phenylamino)-4′-methyl-[4,5]bithiazolyl-2′-yl]-acetamide.TFA]
> 95000	15000		4.3	~12000		COc1ccc(-c2cccnc2)cc1Nc1nc(-c2sc(C)nc2C)cs1 [Example 141, (2′,4′-Dimethyl-[4,5′]bithiazolyl-2-yl)-(2-methoxy-5-pyridin-3-yl-phenyl)-amine]
